How the values were obtained:
Experiment in all cases: Test D controlled growth environment herbicide test, pre- and postemergence
Type in all cases: in vivo
[1] = test system: barley, spring (spring barley, Hordeum vulgare)
How it was run: (§1)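 Species sown in silt loam and sprayed preemergence, or grown in peat-based medium to 2–18 cm (1- to 4-leaf stage) and sprayed postemergence, with compounds in non-phytotoxic solvent plus surfactant. Visual injury scored versus controls after 14–21 d in a controlled environment, 0 (no effect) to 100 (complete control).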

[2] = test system: lambsquarters (Chenopodium album)
How it was run: as §1

[3] = test system: wheat, winter (winter wheat, Triticum aestivum)
How it was run: as §1

[4] = test system: field poppy (Papaver rhoeas)
How it was run: as §1

[5] = test system: ryegrass, Italian (Italian ryegrass, Lolium multiflorum)
How it was run: as §1

[6] = test system: chamomile (scentless chamomile, Matricaria inodora)
How it was run: as §1

[7] = test system: mustard, wild (wild mustard, Sinapis arvensis)
How it was run: as §1

[8] = test system: blackgrass (Alopecurus myosuroides)
How it was run: as §1

[9] = test system: oilseed rape (Brassica napus)
How it was run: as §1

[10] = test system: wheat, spring (spring wheat, Triticum aestivum)
How it was run: as §1

[11] = test system: speedwell (bird's-eye speedwell, Veronica persica)
How it was run: as §1

[12] = test system: foxtail, green (green foxtail, Setaria viridis)
How it was run: as §1

[13] = test system: bluegrass (annual bluegrass, Poa annua)
How it was run: as §1

[14] = Postemergence, 31 g ai/ha, scale 0 to 100 (0 no effect, 100 complete control)
[15] = Postemergence, 125 g ai/ha, visual rating on scale 0 (no effect) to 100 (complete control), 14 to 21 d
[16] = Postemergence, 250 g ai/ha, scale 0 to 100 (0 no effect, 100 complete control)
[17] = Preemergence, 62 g ai/ha, scale 0 to 100 (0 no effect, 100 complete control)
[18] = Preemergence, 125 g ai/ha, scale 0 to 100 (0 no effect, 100 complete control)
[19] = Preemergence, 250 g ai/ha, scale 0 to 100 (0 no effect, 100 complete control)
[20] = postemergence, 62 g ai/ha, scale 0 to 100, 0 no effect, 100 complete control

CC(=O)Oc1c(C)nn(C)c(=O)c1-c1c(C)sc2ccc(C)cc12 [Compound 25]
Plant response rating, Barley, Spring [1, 14]: 0 | Plant response rating, Barley, Spring [1, 15]: 0 | Plant response rating, Barley, Spring [1, 16]: 10 | Plant response rating (scale of 0 to 100), Barley, Spring ([1]; Preemergence, 31 g ai/ha): 0 | Plant response rating, Barley, Spring [1, 17]: 0 | Plant response rating, Barley, Spring [1, 18]: 0 | Barley, Spring plant response rating [1, 19]: 0 | Plant response rating, Barley, Spring [1, 20]: 0 | Lambsquarters plant response rating [2, 14]: 90 | Plant response rating, Lambsquarters [2, 15]: 90 | Plant response rating, Lambsquarters [2, 16]: 95 | Plant response rating (scale of 0 to 100), Lambsquarters ([2]; Preemergence, 31 g ai/ha): 80 | Plant response rating, Lambsquarters [2, 17]: 95 | Plant response rating, Lambsquarters [2, 18]: 98 | Plant response rating, Lambsquarters [2, 19]: 100 | Plant response rating, Lambsquarters [2, 20]: 90 | Wheat, Winter plant response rating [3, 14]: 0 | Plant response rating, Wheat, Winter [3, 15]: 5 | Plant response rating, Wheat, Winter [3, 16]: 20 | Plant response rating (scale of 0 to 100), Wheat, Winter ([3]; Preemergence, 31 g ai/ha): 0 | Plant response rating, Wheat, Winter [3, 17]: 0 | Plant response rating, Wheat, Winter [3, 18]: 0 | Plant response rating, Wheat, Winter [3, 19]: 20 | Plant response rating, Wheat, Winter [3, 20]: 0 | Field Poppy plant response rating [4, 14]: 70 | Plant response rating, Field Poppy [4, 15]: 100 | Plant response rating, Field Poppy [4, 16]: 100 | Plant response rating (scale of 0 to 100), Field Poppy ([4]; Preemergence, 31 g ai/ha): 95 | Plant response rating, Field Poppy [4, 17]: 100 | Plant response rating, Field Poppy [4, 18]: 100 | Plant response rating, Field Poppy [4, 19]: 100 | Plant response rating, Field Poppy [4, 20]: 80 | Ryegrass, Italian plant response rating [5, 14]: 75 | Plant response rating, Ryegrass, Italian [5, 15]: 85 | Plant response rating, Ryegrass, Italian [5, 16]: 90 | Plant response rating (scale of 0 to 100), Ryegrass, Italian ([5]; Preemergence, 31 g ai/ha): 95 | Plant response rating, Ryegrass, Italian [5, 17]: 100 | Plant response rating, Ryegrass, Italian [5, 18]: 100 | Plant response rating, Ryegrass, Italian [5, 19]: 100 | Plant response rating, Ryegrass, Italian [5, 20]: 85 | Chamomile plant response rating [6, 14]: 75 | Plant response rating, Chamomile [6, 15]: 100 | Plant response rating, Chamomile [6, 16]: 100 | Plant response rating (scale of 0 to 100), Chamomile ([6]; Preemergence, 31 g ai/ha): 100 | Plant response rating, Chamomile [6, 17]: 100 | Plant response rating, Chamomile [6, 18]: 100 | Plant response rating, Chamomile [6, 19]: 95 | Plant response rating, Chamomile [6, 20]: 95 | Mustard, Wild plant response rating [7, 14]: 20 | Plant response rating, Mustard, Wild [7, 15]: 70 | Plant response rating, Mustard, Wild [7, 16]: 85 | Plant response rating (scale of 0 to 100), Mustard, Wild ([7]; Preemergence, 31 g ai/ha): 0 | Plant response rating, Mustard, Wild [7, 17]: 0 | Plant response rating, Mustard, Wild [7, 18]: 20 | Plant response rating, Mustard, Wild [7, 19]: 60 | Plant response rating, Mustard, Wild [7, 20]: 40 | Blackgrass plant response rating [8, 14]: 65 | Plant response rating, Blackgrass [8, 15]: 80 | Plant response rating, Blackgrass [8, 16]: 80 | Plant response rating (scale of 0 to 100), Blackgrass ([8]; Preemergence, 31 g ai/ha): 85 | Plant response rating, Blackgrass [8, 17]: 90 | Plant response rating, Blackgrass [8, 18]: 90 | Blackgrass plant response rating [8, 19]: 95 | Plant response rating, Blackgrass [8, 20]: 75 | Oilseed Rape plant response rating [9, 14]: 5 | Plant response rating, Oilseed Rape [9, 15]: 45 | Plant response rating, Oilseed Rape [9, 16]: 60 | Plant response rating (scale of 0 to 100), Oilseed Rape ([9]; Preemergence, 31 g ai/ha): 0 | Plant response rating, Oilseed Rape [9, 17]: 0 | Plant response rating, Oilseed Rape [9, 18]: 0 | Plant response rating, Oilseed Rape [9, 19]: 35 | Plant response rating, Oilseed Rape [9, 20]: 30 | Wheat, Spring plant response rating [10, 14]: 0 | Plant response rating, Wheat, Spring [10, 15]: 15 | Plant response rating, Wheat, Spring [10, 16]: 20 | Plant response rating (scale of 0 to 100), Wheat, Spring ([10]; Preemergence, 31 g ai/ha): 0 | Plant response rating, Wheat, Spring [10, 17]: 0 | Plant response rating, Wheat, Spring [10, 18]: 10 | Plant response rating, Wheat, Spring [10, 19]: 25 | Plant response rating, Wheat, Spring [10, 20]: 0 | Speedwell plant response rating [11, 14]: 10 | Plant response rating, Speedwell [11, 15]: 25 | Plant response rating, Speedwell [11, 16]: 80 | Plant response rating (scale of 0 to 100), Speedwell ([11]; Preemergence, 31 g ai/ha): 35 | Plant response rating, Speedwell [11, 17]: 80 | Plant response rating, Speedwell [11, 18]: 95 | Plant response rating, Speedwell [11, 19]: 100 | Plant response rating, Speedwell [11, 20]: 15 | Foxtail, Green plant response rating [12, 14]: 60 | Plant response rating, Foxtail, Green [12, 15]: 70 | Plant response rating, Foxtail, Green [12, 16]: 75 | Plant response rating (scale of 0 to 100), Foxtail, Green ([12]; Preemergence, 31 g ai/ha): 35 | Plant response rating, Foxtail, Green [12, 17]: 90 | Plant response rating, Foxtail, Green [12, 18]: 95 | Plant response rating, Foxtail, Green [12, 19]: 100 | Plant response rating, Foxtail, Green [12, 20]: 65 | Bluegrass plant response rating [13, 14]: 10 | Plant response rating, Bluegrass [13, 15]: 30 | Plant response rating, Bluegrass [13, 16]: 40 | Plant response rating (scale of 0 to 100), Bluegrass ([13]; Preemergence, 31 g ai/ha): 25 | Plant response rating, Bluegrass [13, 17]: 35 | Plant response rating, Bluegrass [13, 18]: 40 | Bluegrass plant response rating [13, 19]: 75 | Plant response rating, Bluegrass [13, 20]: 20

Reference: patent US10597388B2, “Pyridazinone herbicides” (FMC CORPORATION, priority 2014, dated 2020)
